Assay results as given in article PMC3938390 (Biochemistry, 2013).
Like-named read-outs stand apart in the source and are kept apart here.

Legend:
[1] = target: CB1 (Homo sapiens, UniProt P21554); type: binding
[2] = target: C98A,C107ACB1^WT (Homo sapiens, UniProt P21554, C107A/C98A); settings: [3H]CP55940 binding, N-terminal C98-C107 disulfide removed by mutation
[3] = target: CB1^WT (Homo sapiens, UniProt P21554); settings: [3H]CP55940 binding
[4] = CB1^WT treated with 10 mM DTT for 20 min prior to assay

Chain of CB1^WT (P21554 whole entry): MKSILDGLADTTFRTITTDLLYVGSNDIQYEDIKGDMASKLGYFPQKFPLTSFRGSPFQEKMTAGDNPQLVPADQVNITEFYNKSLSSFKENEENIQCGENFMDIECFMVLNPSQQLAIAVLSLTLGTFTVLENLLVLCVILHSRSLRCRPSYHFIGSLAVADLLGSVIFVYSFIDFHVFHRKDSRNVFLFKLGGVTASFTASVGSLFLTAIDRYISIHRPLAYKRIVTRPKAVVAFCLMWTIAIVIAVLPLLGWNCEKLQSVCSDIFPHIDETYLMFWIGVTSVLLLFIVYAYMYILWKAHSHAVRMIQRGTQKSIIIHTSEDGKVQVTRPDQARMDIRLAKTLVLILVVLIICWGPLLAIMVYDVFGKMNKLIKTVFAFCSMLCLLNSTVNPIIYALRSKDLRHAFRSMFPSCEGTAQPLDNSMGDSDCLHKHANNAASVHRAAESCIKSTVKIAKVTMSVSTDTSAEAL
Chain of CB1 (P21554 whole entry): as above
Chain of C98A,C107ACB1^WT (P21554 whole entry C98A/C107A): as the sequence (P21554 whole entry) above, with C98A, C107A counted along it

## CCCCCCC(C)(C)c1ccc([C@@H]2C[C@H](O)CC[C@H]2CCCO)c(O)c1 [CP55940, (-)-cis-3-[2-hydroxy-4-(1,1-dimethyl-heptyl)phenyl]-trans-4-(3-hydroxypropyl)cyclohexanol]
[1]
  cooperativity factor α between orthosteric ligand and DTT: 0.69 ± 0.08

## CCc1c(C(=O)NCCc2ccc(N3CCCCC3)cc2)[nH]c2ccc(Cl)cc12 [Org 27569]
[2]
  allosteric cooperativity factor α for agonist binding: 7.8 ± 0.5
[3]; [4]
  allosteric cooperativity factor α for agonist binding: 6.8 ± 0.3
[3]; untreated CB1^WT
  allosteric cooperativity factor α for agonist binding: 4.9 ± 0.4

## O=C(Nc1ccc(Cl)cc1)Nc1cccc(-c2cccc(N3CCCC3)n2)c1 [PSNCBAM-1, 1-(4-chlorophenyl)-3-[3-(6-pyrrolidin-1-ylpyridin-2-yl)phenyl]urea]
[3]; [4]
  allosteric cooperativity factor α for agonist binding: 5.9 ± 0.3
[3]; untreated CB1^WT
  allosteric cooperativity factor α for agonist binding: 4.2 ± 0.2
